The values below come from patent US5830868A, “Substituted DI- and tripeptide inhibitors of protein: farnesyl transferase” (Warner-Lambert Company, priority 1996, dated 1998).

This experiment has as its target T1, rat brain farnesyl protein transferase (PFT) (Rattus norvegicus, UniProt Q02293+Q04631).
T1 construct: 40-fold purified rat brain farnesyl protein transferase; from tissue; host or cells: rat brain
The experiment is described as follows: PFT inhibitory activity assay (radiolabeled farnesyl pyrophosphate, biotinyl peptide, streptavidin beads). To be noted: 40-fold purified rat brain enzyme; 0.12 μM [3H]FPP, 0.1 μM biotinyl-Ahe-Tyr-Lys-Cys-Val-Ile-Met; 37° C., 30 minutes; read-out: IC50 (μM) against PFT. The experiment is classed as biochemical. The protocol:
The PFT inhibitory activity of compounds of Formula I was assayed in 30 mM potassium phosphate buffer, pH 7.4, containing 7 mM DTT, 1.2 mM MgCl2, 0.1 mM leupeptin, 0.1 mM pepstatin and 0.2 mM phenylmethylsulfonyl fluoride. Assays were performed in 96 well plates (Wallec) and employed solutions composed of varying concentrations of a compound of Formula I in 100% DMSO. Upon addition of both substrates, radiolabeled farnesyl pyrophosphate ([1-^3 H], specific activity 15--30 Ci/mmol, final concentration 0.12 μM) and (biotinyl)-Ahe-Tyr-Lys-Cys-Val-Ile-Met peptide (final concentration 0.1 μM), the enzyme reaction was started by addition of 40-fold purified rat brain farnesyl protein transferase. After incubation at 37° C. for 30 minutes, the reaction was terminated by diluting the reaction 2.5-fold with a stop buffer containing 1.5M magnesium acetate, 0.2M H3 PO4, 0.5% BSA, and strepavidin beads (Amersham) at a concentration of 1.3 mg/mL. After allowing the plate to settle for 30 minutes at room temperature, radioactivity was quantitated on a microBeta counter (model 1450, Wallec). Compounds of Formula I show IC50 values of 0.5 nM to 80 μM (see data table) in this assay and are thus valuable inhibitors of protein: farnesyl transferase enzyme which may be used in the medical treatment of tissue proliferative diseases, including cancer and restenosis.

Molecules are shown by their SMILES. Square brackets hold non-standard residues; d marks the D form. Peptide text beside a SMILES is read from it. * marks the point of attachment. Cbz = O=C(OCc1ccccc1)*; Bn = c1ccc(C*)cc1

T1 sequence (Q02293 whole entry, one chain of several): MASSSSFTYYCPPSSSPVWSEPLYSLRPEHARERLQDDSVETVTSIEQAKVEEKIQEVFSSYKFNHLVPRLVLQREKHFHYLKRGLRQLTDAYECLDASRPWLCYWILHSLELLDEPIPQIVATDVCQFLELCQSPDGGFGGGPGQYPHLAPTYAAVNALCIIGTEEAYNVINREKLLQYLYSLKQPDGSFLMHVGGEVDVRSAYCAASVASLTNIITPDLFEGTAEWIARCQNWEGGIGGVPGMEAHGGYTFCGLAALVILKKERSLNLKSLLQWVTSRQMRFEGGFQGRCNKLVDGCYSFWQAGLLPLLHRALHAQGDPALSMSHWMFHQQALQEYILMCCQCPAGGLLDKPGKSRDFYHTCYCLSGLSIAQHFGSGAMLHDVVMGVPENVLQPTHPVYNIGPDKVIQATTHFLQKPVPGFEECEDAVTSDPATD

With `COC(=O)[C@H](COCc1ccccc1)NC(=O)C(C)(Cc1ccc(OCc2ccccc2)cc1)NC(=O)[C@H](Cc1c[nH]cn1)NC(=O)OCc1ccccc1` (mixture of isomers) [Example 10, N-[α-Methyl-N-[N-[(phenylmethoxy)carbonyl]-L-histidyl]-O-(phenylmethyl)-DL-tyrosyl]-O-(phenylmethyl)-L-serine. methyl ester], the IC50 was determined as 0.1 µM.

With `CCOc1ccc(NC(=O)N[C@@H](Cc2cnc[nH]2)C(=O)N[C@H](Cc2ccc(OCc3ccccc3)cc2)C(=O)NCCCOc2ccccc2)cc1` (stereo in doubt) [Example 25, (S,R)-N-[2-(4-Benzyloxy-phenyl)-1-(3-phenoxy-propylcarbamoyl)-ethyl]-2-[3-(4-ethoxy-phenyl)-ureido]-3-(3H-imidazol-4-yl)-propionamide], the IC50 was found to be 3.7 µM.

For the compound `Cc1ccc(S(=O)(=O)N[C@@H](Cc2cnc[nH]2)C(=O)N[C@H](Cc2ccc(OCc3ccccc3)cc2)C(=O)N2CCN(Cc3ccccc3)CC2)cc1` (stereo in doubt) [Example 28, (S,R)-N-[1-(4-Benzyloxy-benzyl)-2-(4-benzyl-piperazin-1-yl)-2-oxo-ethyl]-3-(3H-imidazol-4-yl)-2-(toluene-4-sulfonylamino)-propionamide], the IC50 was 11 µM. Consider `O=C(Nc1ccccc1)NC(Cc1c[nH]cn1)C(=O)NC(Cc1ccc(OCc2ccccc2)cc1)C(=O)NCCCOc1ccccc1` [5 (3), PhNHCO--D--His--Tyr(OBn)--CONHCH2 CH2 CH2 OPh], for which the IC50 amounted to 2.1 µM. As to `CCCCNC(=O)NC(Cc1cnc[nH]1)C(=O)NC(Cc1ccc(OCc2ccccc2)cc1)C(=O)NCCCCc1ccccc1` [5 (4), BuNHCO--D--His--Tyr(OBn)--CONH(CH2)4 Ph], the IC50 came out at 7.3 µM.

Regarding `O=C(N[C@H](Cc1c[nH]cn1)C(=O)N[C@@H](Cc1ccc(OCc2ccccc2)cc1)C(=O)NCCCOc1ccccc1)OCc1ccccc1` [5 (23), BnOCO--D--His--Tyr(OBn)CONHCH2 CH2 CH2 OPh], the IC50 amounted to 0.64 µM.

Regarding `COC(=O)C(CCSC)NC(=O)C(Cc1ccc(OCc2ccccc2)cc1)NC(=O)C(Cc1cnc[nH]1)NC(=O)NCCc1ccccc1` [5 (28), PhCH2 CH2 NHCO--D--His--Tyr(OBn)CONH--Met--CO2 Me], the IC50 was 0.73 µM. `O=C(Cc1ccccc1)N[C@H](Cc1c[nH]cn1)C(=O)N[C@@H](Cc1ccc(OCc2ccccc2)cc1)C(=O)N1CCN(Cc2ccccc2)CC1` [5 (30), PhCH2 CO--D--His--Tyr(OBn)CO(4-Bn-piperazin-1-yl)]: the IC50 was found to be 73 µM. Regarding `O=C(N[C@H](Cc1cnc[nH]1)C(=O)N[C@@H](Cc1ccc(OCc2ccccc2)cc1)C(=O)NCCc1ccccc1)N[C@@H]1C[C@H]1c1ccccc1` [5 (31), (t-2-Ph-c-propyl)-NHCO--D--His--Tyr(OBn)CONHCH2 CH2 Ph], the IC50 stood at 0.76 µM. In the case of `O=C(NC1CCCCC1)N[C@H](Cc1c[nH]cn1)C(=O)N[C@@H](Cc1ccc(OCc2ccccc2)cc1)C(=O)NCc1ccccc1` [5 (35), c-hexyl-NHCO--D--His--Tyr(OBn)CONHCH2 Ph], the IC50 was determined as 66 µM. To `O=C(CCc1ccccc1)N[C@H](Cc1c[nH]cn1)C(=O)N[C@@H](Cc1ccc(OCc2ccccc2)cc1)C(=O)NCCOCc1ccccc1` [5 (36), PhCH2 CH2 CO--D--His--Tyr(OBn)CONHCH2 CH2 OBn] belongs 1.9 µM; to `CC(C)NC(=O)NC(Cc1cnc[nH]1)C(=O)NC(Cc1ccc(OCc2ccccc2)cc1)C(=O)NCc1ccccc1` [5 (40), (CH3)2 CHNHCO--D--His--Tyr(OBn)CONHCH2 Ph], 0.75 µM; to `O=C(Nc1ccc(Oc2ccccc2)cc1)NC(Cc1c[nH]cn1)C(=O)NC(Cc1ccc(OCc2ccccc2)cc1)C(=O)NCCc1ccccc1` [5 (46), (4-PhOPh)NHCO--D--His--Tyr(OBn)--CONHCH2 CH2 Ph], 1 µM. To `COc1ccccc1CCCNC(=O)[C@H](Cc1ccc(OCc2ccccc2)cc1)NC(=O)[C@@H](Cc1c[nH]cn1)NS(=O)(=O)c1ccc(C)cc1` [5 (49), (4-MePh)SO2 --D--His--Tyr(OBn)--CONHCH2 CH2 CH2 --(2-MeO--Ph)] belongs 2.9 µM. For the compound `O=C(NCc1ccccc1)N[C@H](Cc1c[nH]cn1)C(=O)N[C@@H](Cc1ccc(OCc2ccccc2)cc1)C(=O)NOCc1ccccc1` [5 (52), BnNHCO--D--His--Tyr(OBn)CONHOBn], the IC50 stood at 1.6 µM. As to `O=C(Nc1cccc2ccccc12)N[C@H](Cc1c[nH]cn1)C(=O)N[C@@H](Cc1ccc(OCc2ccccc2)cc1)C(=O)NCCOCc1ccccc1` [5 (56), 1-napthyl-NHCO--D--His--Tyr(OBn)CONHCH2 CH2 OBn], the IC50 worked out at 1.1 µM. With `O=C(Nc1cccc2ccccc12)N[C@H](Cc1c[nH]cn1)C(=O)N[C@@H](Cc1ccc(OCc2ccccc2)cc1)C(=O)NCCCCc1ccccc1` [5 (59), 1-napthyl-NHCO--D--His--Tyr(OBn)CONHCH2 CH2 CH2 CH2 Ph] the figure was 20 µM. Take `O=C(Nc1cccc2ccccc12)N[C@H](Cc1c[nH]cn1)C(=O)N[C@@H](Cc1ccc(OCc2ccccc2)cc1)C(=O)NCc1ccccc1` [5 (60), 1-napthyl-NHCO--D--His--Tyr(OBn)CONHCH2 Ph]: the IC50 worked out at 1.4 µM. Consider `CCOc1ccc(NC(=O)N[C@H](Cc2c[nH]cn2)C(=O)N[C@@H](Cc2ccc(OCc3ccccc3)cc2)C(=O)NCCOCc2ccccc2)cc1` [5 (61), (4-EtOPh)NHCO--D--His--Tyr(OBn)CONHCH2 CH2 OBn], for which the IC50 turned out to be 7.2 µM.

In the case of `O=C(NC(Cc1cnc[nH]1)C(=O)NC(Cc1ccc(OCc2ccccc2)cc1)C(=O)NCCSCc1ccccc1)OCc1ccccc1` [5 (62), BnOCO--D--His--Tyr(OBn)CONHCH2 CH2 SBn], the IC50 came to 1.5 µM. With `CCOc1ccc(NC(=O)NC(Cc2cnc[nH]2)C(=O)NC(Cc2ccc(OCc3ccccc3)cc2)C(=O)NCCCOc2ccccc2)cc1` (stereo not shown) [5 (63), (4-EtOPh)NHCO--His--Tyr(OBn)CONHCH2 CH2 CH2 OPh], the IC50 was determined as 1 µM. In the case of `O=C(NC(Cc1c[nH]cn1)C(=O)NC(Cc1ccc(OCc2ccccc2)cc1)C(=O)NCCCCc1ccccc1)OCc1ccccc1` [5 (64), BnOCO--D--His--Tyr(OBn)CONHCH2 CH2 CH2 CH2 Ph], the IC50 stood at 1.7 µM. On to `COc1ccccc1CCCNC(=O)C(Cc1ccc(OCc2ccccc2)cc1)NC(=O)C(Cc1c[nH]cn1)NC(=O)Cc1ccccc1` [5 (69), PhCH2 CO--D--His--Tyr(OBn)CONH(CH2)3 --(2-MeO--Ph)], for which the IC50 stood at 0.48 µM. `CC(C)NC(=O)N[C@H](Cc1c[nH]cn1)C(=O)N[C@@H](Cc1ccc(OCc2ccccc2)cc1)C(=O)NCCCCc1ccccc1` [5 (79), (CH3)2 CHNHCO--D--His--Tyr(OBn)CONHCH2 CH2 CH2 CH2 Ph]: the IC50 was 3 µM. As to `O=C(CCc1ccccc1)NC(Cc1c[nH]cn1)C(=O)NC(Cc1ccc(OCc2ccccc2)cc1)C(=O)NCc1ccccc1` [5 (80), PhCH2 CH2 CO--D--His--Tyr(OBn)CONHCH2 Ph], the IC50 turned out to be 1.6 µM. As to `NC(=O)[C@H](COCc1ccccc1)NC(=O)[C@H](Cc1ccc(OCc2ccccc2)cc1)NC(=O)[C@H](Cc1c[nH]cn1)NC(=O)OCc1ccccc1` [Example 1, Nα -[N-[N-[(Phenylmethoxy)carbonyl]-L-histidyl]-O-(phenylmethyl)-L-tyrosyl]-O-(phenylmethyl)-L-serinamide] (Cbz-His-Tyr(Bn)-Ser(Bn)-NH2), the IC50 was found to be 4.4 µM.

As to `O=C(NCc1ccccc1)N[C@@H](Cc1c[nH]cn1)C(=O)N[C@@H](Cc1ccc(OCc2ccccc2)cc1)C(=O)NCCCOc1ccccc1` [Example 4], the IC50 was found to be 1 µM. For `COC(=O)[C@H](COCc1ccccc1)NC(=O)[C@H](Cc1ccc(OCc2ccccc2)cc1)NC(=O)[C@H](Cc1c[nH]cn1)NC(=O)OCc1ccccc1` [Example 6, N-[N-[N-[(Phenylmethoxy)carbonyl]-L-histidyl]-O-(phenylmethyl)-L-tyrosyl]-O-(phenylmethyl)-L-serine, methyl ester] (Cbz-His-Tyr(Bn)-Ser(Bn)-OMe), the IC50 was determined as 0.42 µM.

With `O=C(N[C@@H](Cc1c[nH]cn1)C(=O)N[C@@H](Cc1ccc(OCc2ccccc2)cc1)C(=O)N[C@@H](COCc1ccccc1)C(=O)O)OCc1ccccc1` [Example 7, N-[N-[N-[(Phenylmethoxy)carbonyl]-L-histidyl]-O-(phenylmethyl)-L-tyrosyl]-O-(phenylmethyl)-L-serine] (Cbz-His-Tyr(Bn)-Ser(Bn)-OH), the IC50 was found to be 0.26 µM. Regarding `COC(=O)[C@H](COCc1ccccc1)NC(=O)[C@H](Cc1ccc(OCc2ccccc2)cc1)NC(=O)[C@@H](Cc1c[nH]cn1)NC(=O)OCc1ccccc1` [Example 8, N-[N-[N-[(Phenylmethoxy)carbonyl]-D-histidyl]-O-(phenylmethyl)-L-tyrosyl]-O-(phenylmethyl)-L-serine, methyl ester] (Cbz-[dH]-Tyr(Bn)-Ser(Bn)-OMe), the IC50 came out at 0.074 µM. As for `COC(=O)[C@@H](COCc1ccccc1)NC(=O)[C@H](Cc1ccc(OCc2ccccc2)cc1)NC(=O)[C@H](Cc1c[nH]cn1)NC(=O)OCc1ccccc1` [Example 9, N-[N-[N-[(Phenylmethoxy)carbonyl]-L-histidyl]-O-(phenylmethyl)-L-tyrosyl]-O-(phenylmethyl)-D-serine, methyl ester] (Cbz-His-Tyr(Bn)-[dS](Bn)-OMe), the IC50 is 0.27 µM.
